Results reported in patent US20160206610A1, “METHODS FOR TREATING AND/OR PREVENTING EMESIS AND/OR NAUSEA INCLUDING ACUTE AND/OR DELAYED NAUSEA AND/OR ACUTE EMESIS AND/OR DELAYED EMESIS” (priority 2015, published 2016).

Test: Fine particle fraction by Next Generation Impactor at 15 LPM (nebulizer solution)
Assay type: physicochemical
Details: Example 6: nebulizer solution, 0.125% w/w palonosetron chloride in sodium chloride/citrate buffer
Text: For a nebulizer solution for inhalation, a 0.125% w/w solution of palonosetron chloride is formulated in a pharmaceutically acceptable buffer for inhalation (0.85% sodium chloride, 0.062% sodium citrate, 0.019% citric acid in water). If tested through a Next Generation Impactor at 15 LPM, the fine particle fraction of palonosetron <4.7 microns is anticipated to be >20%.

fine particle fraction <4.7 microns: > 20%
Compound: O=C1c2cccc3c2[C@H](CCC3)CN1[C@@H]1CN2CCC1CC2 [palonosetron]
